Patent publication EP0268396B1, “4-(benzoyl)thiophene(or furan)-sulfonamide and derivatives thereof for the topical treatment of elevated intraocular pressures” (Merck & Co., Inc., priority 1986, dated 1988)
Counter-ions that a name gives are not always drawn.

system: a-chymotrypsinized rabbit eye; test: Effect of topically administered drug on the α-chymotrypsin-induced elevation of IOP in the rabbit; format: in vivo; conditions: dose 0.5 %, single 50 µl drop applied topically in hydroxyethylcellulose (HEC) vehicle; maximum, statistically significant drop in IOP during the 5 hour duration of the assay

First: NS(=O)(=O)c1cc(C(=O)c2cccc(CNCc3ccccn3)c2)cs1 [3-( [drawing] CH2NHCH2-), 4-[3-(2-Pyridylmethylaminomethyl)]benzoylthiophene-2-sulfonamide dihydrochloride]
Second: CC(C)CNCc1cccc(C(=O)c2csc(S(N)(=O)=O)c2)c1 [Example 3-i-BuNHCH2-, 4-[3-(lsobutylaminomethyl)benzoyl]thiophene-2-sulfonamid]
The “MAX. IOP DROP (mm Hg)” value of the first is higher: -4.0 mm Hg for the first, -7.3 mm Hg for the second.

Compared with CC(C)CN(C)Cc1cccc(C(=O)c2csc(S(N)(=O)=O)c2)c1 [3-i-BuN(CH3)CH2-, 4-[3-(N-lsobutyl-N-methyl)aminomethyl]benzoylthiophene-2 sulfonamide], CCCCNCc1ccc(C(=O)c2csc(S(N)(=O)=O)c2)cc1 [Example 4-n-BuNHCH2-] is higher in “MAX. IOP DROP (mm Hg)” value: -4.0 mm Hg for the first, -3.0 mm Hg for the second.
